**Q.** For `C[C@@H]1O[C@@H]1P(=O)([O-])[O-].[Na+].[Na+]`, which solubility (mole fraction) (in DMF, 283.15 K) is on record?
**A.** The solubility (mole fraction) was 0.000606.

**Q.** What about the solubility (mole fraction) (in DMF, 288.15 K) of the same molecule?
**A.** Its solubility (mole fraction) is 0.000532.

**Q.** What about the solubility (mole fraction) (in DMF, 293.15 K) of the same molecule?
**A.** Its solubility (mole fraction) is 0.000481.

**Q.** What about the solubility (mole fraction) (in DMF, 298.15 K) of the same molecule?
**A.** The solubility (mole fraction) was 0.000443.

**Q.** And the solubility (mole fraction) (in DMF, 303.15 K)?
**A.** The solubility (mole fraction) was 0.000396.

**Q.** What about the solubility (mole fraction) (in DMF, 308.15 K) of the same molecule?
**A.** Its solubility (mole fraction) is 0.000358.

**Q.** What about the solubility (mole fraction) (in DMF, 313.15 K) of the same molecule?
**A.** The solubility (mole fraction) was 0.000339.

**Q.** What about the solubility (mole fraction) (in DMF, 318.15 K) of the same molecule?
**A.** Its solubility (mole fraction) is 0.000312.

**Q.** What about the solubility (mole fraction) (in DMF, 323.15 K) of the same molecule?
**A.** The solubility (mole fraction) was 0.000291.

**Q.** And the solubility (mole fraction) (in acetone, 283.15 K)?
**A.** Its solubility (mole fraction) is 0.000186.

**Q.** What about the solubility (mole fraction) (in acetone, 288.15 K) of the same molecule?
**A.** The solubility (mole fraction) was 0.00016.

**Q.** What about the solubility (mole fraction) (in acetone, 293.15 K) of the same molecule?
**A.** Its solubility (mole fraction) is 0.000138.

**Q.** What about the solubility (mole fraction) (in acetone, 298.15 K) of the same molecule?
**A.** The solubility (mole fraction) was 0.000115.

**Q.** What about the solubility (mole fraction) (in acetone, 303.15 K) of the same molecule?
**A.** Its solubility (mole fraction) is 9.72e-05.

**Q.** And the solubility (mole fraction) (in acetone, 308.15 K)?
**A.** The solubility (mole fraction) was 8.3e-05.

**Q.** And the solubility (mole fraction) (in acetone, 313.15 K)?
**A.** Its solubility (mole fraction) is 7.09e-05.

**Q.** And the solubility (mole fraction) (in acetone, 318.15 K)?
**A.** The solubility (mole fraction) was 6.07e-05.

**Q.** And the solubility (mole fraction) (in acetone, 323.15 K)?
**A.** Its solubility (mole fraction) is 5.47e-05.

**Q.** And the solubility (mole fraction) (in cyclohexane, 283.15 K)?
**A.** The solubility (mole fraction) was 0.000403.

**Q.** What about the solubility (mole fraction) (in cyclohexane, 288.15 K) of the same molecule?
**A.** The solubility (mole fraction) was 0.000353.

**Q.** What about the solubility (mole fraction) (in cyclohexane, 293.15 K) of the same molecule?
**A.** Its solubility (mole fraction) is 0.0003.

**Q.** And the solubility (mole fraction) (in cyclohexane, 298.15 K)?
**A.** Its solubility (mole fraction) is 0.000252.

**Q.** And the solubility (mole fraction) (in cyclohexane, 303.15 K)?
**A.** Its solubility (mole fraction) is 0.000226.

**Q.** What about the solubility (mole fraction) (in cyclohexane, 308.15 K) of the same molecule?
**A.** Its solubility (mole fraction) is 0.000196.

**Q.** What about the solubility (mole fraction) (in cyclohexane, 313.15 K) of the same molecule?
**A.** The solubility (mole fraction) was 0.000175.

**Q.** What about the solubility (mole fraction) (in cyclohexane, 318.15 K) of the same molecule?
**A.** The solubility (mole fraction) was 0.000151.

**Q.** And the solubility (mole fraction) (in cyclohexane, 323.15 K)?
**A.** The solubility (mole fraction) was 0.000128.

**Q.** What about the solubility (mole fraction) (in ethanol, 283.15 K) of the same molecule?
**A.** Its solubility (mole fraction) is 0.00109.

**Q.** What about the solubility (mole fraction) (in ethanol, 288.15 K) of the same molecule?
**A.** Its solubility (mole fraction) is 0.000934.

**Q.** What about the solubility (mole fraction) (in ethanol, 293.15 K) of the same molecule?
**A.** The solubility (mole fraction) was 0.000769.

**Q.** What about the solubility (mole fraction) (in ethanol, 298.15 K) of the same molecule?
**A.** Its solubility (mole fraction) is 0.000643.

**Q.** And the solubility (mole fraction) (in ethanol, 303.15 K)?
**A.** The solubility (mole fraction) was 0.000548.

**Q.** What about the solubility (mole fraction) (in ethanol, 308.15 K) of the same molecule?
**A.** The solubility (mole fraction) was 0.000463.

**Q.** What about the solubility (mole fraction) (in ethanol, 313.15 K) of the same molecule?
**A.** Its solubility (mole fraction) is 0.000383.

**Q.** What about the solubility (mole fraction) (in ethanol, 318.15 K) of the same molecule?
**A.** Its solubility (mole fraction) is 0.000316.

**Q.** What about the solubility (mole fraction) (in ethanol, 323.15 K) of the same molecule?
**A.** Its solubility (mole fraction) is 0.000266.

**Q.** What about the solubility (mole fraction) (in methanol, 283.15 K) of the same molecule?
**A.** Its solubility (mole fraction) is 0.0177.

**Q.** And the solubility (mole fraction) (in methanol, 288.15 K)?
**A.** The solubility (mole fraction) was 0.0165.

**Q.** And the solubility (mole fraction) (in methanol, 293.15 K)?
**A.** The solubility (mole fraction) was 0.0152.

**Q.** What about the solubility (mole fraction) (in methanol, 298.15 K) of the same molecule?
**A.** Its solubility (mole fraction) is 0.0138.

**Q.** What about the solubility (mole fraction) (in methanol, 303.15 K) of the same molecule?
**A.** The solubility (mole fraction) was 0.0129.

**Q.** And the solubility (mole fraction) (in methanol, 308.15 K)?
**A.** Its solubility (mole fraction) is 0.0121.

**Q.** And the solubility (mole fraction) (in methanol, 313.15 K)?
**A.** Its solubility (mole fraction) is 0.0111.

**Q.** And the solubility (mole fraction) (in methanol, 318.15 K)?
**A.** Its solubility (mole fraction) is 0.0105.

**Q.** And the solubility (mole fraction) (in methanol, 323.15 K)?
**A.** Its solubility (mole fraction) is 0.00984.

**Q.** What about the solubility (mole fraction) (in n-propanol, 283.15 K) of the same molecule?
**A.** The solubility (mole fraction) was 0.000108.

**Q.** What about the solubility (mole fraction) (in n-propanol, 288.15 K) of the same molecule?
**A.** The solubility (mole fraction) was 8.01e-05.

**Q.** What about the solubility (mole fraction) (in n-propanol, 293.15 K) of the same molecule?
**A.** Its solubility (mole fraction) is 6.19e-05.

**Q.** What about the solubility (mole fraction) (in n-propanol, 298.15 K) of the same molecule?
**A.** Its solubility (mole fraction) is 4.52e-05.

**Q.** And the solubility (mole fraction) (in n-propanol, 303.15 K)?
**A.** The solubility (mole fraction) was 3.09e-05.

**Q.** And the solubility (mole fraction) (in n-propanol, 308.15 K)?
**A.** Its solubility (mole fraction) is 1.95e-05.

**Q.** What about the solubility (mole fraction) (in n-propanol, 313.15 K) of the same molecule?
**A.** The solubility (mole fraction) was 1.34e-05.

**Q.** And the solubility (mole fraction) (in n-propanol, 318.15 K)?
**A.** Its solubility (mole fraction) is 1.04e-05.

**Q.** What about the solubility (mole fraction) (in n-propanol, 323.15 K) of the same molecule?
**A.** The solubility (mole fraction) was 7.1e-06.

From BigSolDB 2.1
